Patent US7981930B2, “Compositions and kits for treating influenza” (Adamas Pharmaceuticals, Inc., priority 2007, dated 2011)
pEC50: −log10 of the molar value. Values after ≈ are worked out from the molar mass of the structure shown. Read-outs that look alike come from different tables or passages of the source.

Experiments:
[1] = tested on: Influenza A/Victoria/3/75 (H3N2) virus; experiment: In vitro kinetic assay of mono and combination therapy in MDCK and SIAT-1 cells (viral load by CCID50, CPE scoring); assay type: cell-based
[2] = tested on: A/Sydney/05/97 H3N2 virus; assay type: cell-based; settings: for increase in sensitivity of the virus to the drug in triple combination compared to monotherapy: drug used with the two other drugs vs. monotherapy; for concentration range at which synergy was seen: drugs in combination, MDCK 96-well
[3] = tested on: wild type A/Albany (H3N2) strain; experiment: Hollow fiber system, MDCK cells, continuous infusion 168 hours, viral titer and sequencing; assay type: cell-based, Influenza A virus (H3N2); settings: for effect on viral titer: drug alone at low dose (amantadine 0.1 μg/mL; ribavirin 0.5 μg/mL); for concentrations at which the triple combination demonstrated synergism: hollow fiber, steady-state infusion
A/Albany/1/98 (H3N2) = experiment: microbe, parasite or virus in culture; assay type: cell-based; settings: for pEC50 / EC50: Influenza A virus, H3N2, MDCK; for pEC50: read-out: EC50, Target serum C; for EC50: read-out: EC50, In vitro C; for EC25, Target serum C: molar equivalent of in vitro EC25; for EC75, Target serum C: molar equivalent of in vitro EC75; for EC25, In vitro C / EC75, In vitro C: MDCK cells in flasks, virus reduction at 72 hrs
[4] = tested on: A/Victoria/3/75 (H3N2) virus; experiment: Mouse model of influenza infection, treatment initiated 24 or 48 hours after infection (Example 3B); assay type: in vivo, mice; settings: for weight loss: day 9
[5] = tested on: A/Victoria/3/75 (H3N2) virus; experiment: Mouse model of influenza infection, treatment started before infection (Example 3A); assay type: in vivo, mice
[6] = drug alone at high dose (amantadine 1.0 μg/mL; ribavirin 5 μg/mL), 48 hours
[7] = molar equivalent of in vitro EC50
[8] = monotherapy, concentration of drug that reduces 50% of the virus at 72 hrs
[9] = treatment initiated 48 hours after infection
[10] = amantadine 3 mg/ml, oseltamivir 10 or 30 mg/kg/day, ribavirin 7 or 21 mg/kg/day, monotherapy

SMILES	increase in sensitivity of the virus to the drug in triple combination compared to monotherapy [2]	concentration range at which synergy was seen [2] [µg/mL]	reduction in titer [3, 6]	effect on viral titer [3]	concentrations at which the triple combination demonstrated synergism [3] [µg/mL]	pEC50 (A/Albany/1/98 (H3N2); [7])	EC50 (A/Albany/1/98 (H3N2); [8]) [ng/mL]	EC25, Target serum C (A/Albany/1/98 (H3N2)) [nM]	EC75, Target serum C (A/Albany/1/98 (H3N2)) [nM]	EC25, In vitro C (A/Albany/1/98 (H3N2); monotherapy) [ng/mL]	EC75, In vitro C (A/Albany/1/98 (H3N2); monotherapy) [ng/mL]	weight loss [4, 9]	weight loss during the infection [5, 10]	times to death ([5]; mouse, in vivo)	further results
NC12CC3CC(CC(C3)C1)C2 [Amantadine, 1-amino-adamantane]	10 fold	0.1 to 1	2-3 log	negligible effect	0.1 to 1	6.32	91	288	815	54 (≈ 357 nM)	153 (≈ 1010 nM)	~35%	more substantial	significantly increased	time post infection until substantial cell death was seen [1]: 144 h; reduction in viral load ([2]; amantadine monotherapy at 1 μg/ml): ~60%; mortality (UK/EU mortality criteria) ([4]; mouse, in vivo): 100%; survival rate ([5]; amantadine 3 mg/ml by Alzet pump (4 mg/kg/day), 3 survivors out of 11): 27%; protection (survival) ([5]; amantadine 10 mg/ml by Alzet pump (13 mg/kg/day)): 92%; weight loss during the infection ([5]; amantadine 10 mg/ml monotherapy): minimal; mice protected, UK/EU mortality criteria (death=20% weight loss) ([5]; mouse, in vivo): 10%
CCOC(=O)C1=C[C@@H](OC(CC)CC)[C@H](NC(C)=O)[C@@H](N)C1 [Oseltamivir]	over 100 fold	0.001 to 0.032			0.001 to 0.01			0.080	0.240	0.025 (≈ 0.08 nM)	0.075 (≈ 0.24 nM)	~35%	more substantial		reduction in viral load ([2]; oseltamivir monotherapy at 0.1 μg/ml): ~50%; reduction in titer ([3]; oseltamivir alone, both doses (1 and 10 ng/mL)): ~1 log; EC50 (A/Albany/1/98 (H3N2); 72 h): 0.05 ng/mL; pEC50 (A/Albany/1/98 (H3N2)): 9.80; mortality (UK/EU mortality criteria) ([4]; treatment initiated 24 hours after infection, by day 9, amantadine 28, oseltamivir 10 mg/kg/day): 100%; mice protected, UK/EU mortality criteria (death=20% weight loss) ([5]; oseltamivir 10 mg/kg/day, amantadine 3 mg/ml, ribavirin 7 mg/kg/day, as monotherapy or as triple combination at the same concentrations): 40%; survival benefit ([5]; oseltamivir monotherapy at 10 and 30 mg/kg/day oral gavage): 92-100%
NC(=O)c1ncn([C@@H]2O[C@H](CO)[C@@H](O)[C@H]2O)n1 [Ribavirin]	100 fold	0.032 to 1.0	~3 log	negligible effect	0.5 to 5	5.99	420	760	1500	310 (≈ 1270 nM)	615 (≈ 2520 nM)	about 26%	more substantial	significantly increased	reduction in viral load ([2]; ribavirin monotherapy at 1 μg/ml): approximately 10%; reduction in viral load ([2]; ribavirin monotherapy at 3.2 μg/ml): ~95%; weight as percent of original weight ([4]; treatment initiated 48 hours after infection, day 13): approximately 80%
